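The compound was tested at five concentrations on cells cultured in 96-well plates, with a 48-hour exposure period. At the GI50, growth is halved.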 The source made the active and inactive calls. Cut-off read from the data, not from the text of the source: active = GI50 up to about 1.1 µM and inactive = higher. Where a SMILES comes first, the peptide text is derived from it. [ ]: non-standard residue; d: D form. The star is where a group is joined. Cbz = O=C(OCc1ccccc1)*; Aib = CC(C)(N)C(=O)O
Legend:
Test in all cases: DTP human tumour cell line panel, 48 h
NCI-H522 = system: NCI-H522
SK-MEL-2 = system: SK-MEL-2
OVCAR-5 = system: OVCAR-5
HOP-62 = system: HOP-62
SNB-19 = system: SNB-19
NCI-H460 = system: NCI-H460
T47D = system: T47D
OVCAR-4 = system: OVCAR-4
NCI-H226 = system: NCI-H226
786-0 = system: 786-0
NCI-H23 = system: NCI-H23
MDA-N = system: MDA-N
HCC 2998 = system: HCC 2998
EKVX = system: EKVX
M14 = system: M14
HT-29 = system: HT-29
OVCAR-8 = system: OVCAR-8
DU-145 = system: DU-145
BT-549 = system: BT-549

Structure (SMILES)	GI50 (NCI-H522)	GI50 (SK-MEL-2)	GI50 (OVCAR-5)	GI50 (HOP-62)	GI50 (SNB-19)	GI50 (NCI-H460)	GI50 (T47D)	GI50 (OVCAR-4)	GI50 (NCI-H226)	GI50 (786-0)	GI50 (NCI-H23)	GI50 (MDA-N)	GI50 (HCC 2998)	GI50 (EKVX)	GI50 (M14)	GI50 (HT-29)	GI50 (OVCAR-8)	GI50 (DU-145)	GI50 (BT-549)
CN(C)/C=N/Cc1ccc2c(c1)OCO2	> 100 µM (inactive)	> 100 µM (inactive)	> 100 µM (inactive)	> 100 µM (inactive)	> 100 µM (inactive)	> 100 µM (inactive)	> 100 µM (inactive)	> 100 µM (inactive)	> 100 µM (inactive)	> 100 µM (inactive)	> 100 µM (inactive)	> 100 µM (inactive)	> 100 µM (inactive)	> 100 µM (inactive)	> 100 µM (inactive)	> 100 µM (inactive)	> 100 µM (inactive)	> 100 µM (inactive)	–
Cc1oncc1/N=C1\C=C(O)C(=O)c2ccccc21	5.41 µM (inactive)	–	13.5 µM (inactive)	17.4 µM (inactive)	16.3 µM (inactive)	3.91 µM (inactive)	3.3 µM (inactive)	3.62 µM (inactive)	19 µM (inactive)	18.2 µM (inactive)	3.79 µM (inactive)	–	16.8 µM (inactive)	14.6 µM (inactive)	6.1 µM (inactive)	3.65 µM (inactive)	2.53 µM (inactive)	15 µM (inactive)	12.4 µM (inactive)
O=c1[nH]c(=O)n(Cc2ccccc2CO)cc1Sc1ccccc1	1.87 µM (inactive)	19.3 µM (inactive)	> 100 µM (inactive)	32.8 µM (inactive)	35.7 µM (inactive)	49.7 µM (inactive)	62.4 µM (inactive)	50 µM (inactive)	22.4 µM (inactive)	47.2 µM (inactive)	17.4 µM (inactive)	–	15.7 µM (inactive)	21 µM (inactive)	19.7 µM (inactive)	30.5 µM (inactive)	17.7 µM (inactive)	58.9 µM (inactive)	–
Cc1csc2c(=O)n(COCc3ccccc3)c(=O)[nH]c12	94.8 µM (inactive)	–	> 100 µM (inactive)	59.8 µM (inactive)	> 100 µM (inactive)	> 100 µM (inactive)	–	> 100 µM (inactive)	> 100 µM (inactive)	> 100 µM (inactive)	> 100 µM (inactive)	> 100 µM (inactive)	–	66.2 µM (inactive)	> 100 µM (inactive)	> 100 µM (inactive)	> 100 µM (inactive)	> 100 µM (inactive)	> 100 µM (inactive)
CC(C)(C)n1c(=O)[nH]c(=O)n1C(C)(C)C	–	> 100 µM (inactive)	> 100 µM (inactive)	> 100 µM (inactive)	> 100 µM (inactive)	> 100 µM (inactive)	–	> 100 µM (inactive)	> 100 µM (inactive)	> 100 µM (inactive)	> 100 µM (inactive)	> 100 µM (inactive)	> 100 µM (inactive)	> 100 µM (inactive)	> 100 µM (inactive)	> 100 µM (inactive)	> 100 µM (inactive)	–	> 100 µM (inactive)
S=C1SC(c2ccc(Cl)cc2)(c2ccc(Cl)cc2)c2ccccc21	91.8 µM (inactive)	–	> 100 µM (inactive)	> 100 µM (inactive)	> 100 µM (inactive)	> 100 µM (inactive)	–	> 100 µM (inactive)	51.2 µM (inactive)	> 100 µM (inactive)	71 µM (inactive)	62.2 µM (inactive)	59.8 µM (inactive)	91.4 µM (inactive)	79.4 µM (inactive)	28 µM (inactive)	> 100 µM (inactive)	55.1 µM (inactive)	79.1 µM (inactive)
COC[C@@H](/N=C/C(C)(C)C)C(C)C	> 100 µM (inactive)	> 100 µM (inactive)	> 100 µM (inactive)	> 100 µM (inactive)	> 100 µM (inactive)	> 100 µM (inactive)	> 100 µM (inactive)	> 100 µM (inactive)	> 100 µM (inactive)	> 100 µM (inactive)	> 100 µM (inactive)	> 100 µM (inactive)	> 100 µM (inactive)	> 100 µM (inactive)	> 100 µM (inactive)	> 100 µM (inactive)	> 100 µM (inactive)	> 100 µM (inactive)	–
C/C(=C\CO)CC/C=C(\C)CNc1ccccc1	23.2 µM (inactive)	–	> 100 µM (inactive)	> 100 µM (inactive)	62.5 µM (inactive)	> 100 µM (inactive)	14.7 µM (inactive)	–	36.9 µM (inactive)	> 100 µM (inactive)	< 0.01 µM (active)	–	–	23.9 µM (inactive)	62.7 µM (inactive)	19.4 µM (inactive)	82.8 µM (inactive)	37.8 µM (inactive)	18.6 µM (inactive)
Oc1ccc2ccccc2c1/N=N\c1cccc2ccccc12	82.6 µM (inactive)	> 100 µM (inactive)	> 100 µM (inactive)	> 100 µM (inactive)	> 100 µM (inactive)	–	> 100 µM (inactive)	> 100 µM (inactive)	> 100 µM (inactive)	> 100 µM (inactive)	> 100 µM (inactive)	> 100 µM (inactive)	–	36 µM (inactive)	95.9 µM (inactive)	> 100 µM (inactive)	> 100 µM (inactive)	> 100 µM (inactive)	–
O=C(NNC(=S)NC1CCCCC1)c1csc(NC(=S)NC2CCCCC2)n1	12 µM (inactive)	15.5 µM (inactive)	12.8 µM (inactive)	12.4 µM (inactive)	12 µM (inactive)	–	13.1 µM (inactive)	–	66.7 µM (inactive)	7.64 µM (inactive)	10.4 µM (inactive)	–	3.12 µM (inactive)	> 100 µM (inactive)	3.46 µM (inactive)	> 100 µM (inactive)	2.25 µM (inactive)	14.9 µM (inactive)	2.9 µM (inactive)
O=C(O)C#CCO	> 100 µM (inactive)	> 100 µM (inactive)	> 100 µM (inactive)	> 100 µM (inactive)	> 100 µM (inactive)	> 100 µM (inactive)	–	> 100 µM (inactive)	–	> 100 µM (inactive)	> 100 µM (inactive)	–	–	> 100 µM (inactive)	> 100 µM (inactive)	> 100 µM (inactive)	> 100 µM (inactive)	–	–
O=C1NC(=O)C(COCc2ccccc2)C2=C1SCCC2 (stereo not given)	> 100 µM (inactive)	> 100 µM (inactive)	–	> 100 µM (inactive)	> 100 µM (inactive)	> 100 µM (inactive)	–	> 100 µM (inactive)	> 100 µM (inactive)	> 100 µM (inactive)	> 100 µM (inactive)	> 100 µM (inactive)	> 100 µM (inactive)	> 100 µM (inactive)	> 100 µM (inactive)	> 100 µM (inactive)	> 100 µM (inactive)	> 100 µM (inactive)	> 100 µM (inactive)
CCC(C)C(Nc1c2ccccc2nc2c(C(=O)NCCN(C)C)cccc12)C(=O)O (stereo not given)	12.7 µM (inactive)	19.4 µM (inactive)	21.3 µM (inactive)	13 µM (inactive)	8.28 µM (inactive)	–	–	5.83 µM (inactive)	6.92 µM (inactive)	9.89 µM (inactive)	20.2 µM (inactive)	17.2 µM (inactive)	–	16.2 µM (inactive)	16.2 µM (inactive)	3.21 µM (inactive)	4.45 µM (inactive)	38.1 µM (inactive)	–
CC(=O)CC1(OC(=O)C2C(C=C(C)C)C2(C)C)C(=O)Nc2ccccc21 (stereo not given)	64.6 µM (inactive)	> 100 µM (inactive)	> 100 µM (inactive)	> 100 µM (inactive)	> 100 µM (inactive)	82.8 µM (inactive)	> 100 µM (inactive)	84.9 µM (inactive)	> 100 µM (inactive)	> 100 µM (inactive)	> 100 µM (inactive)	> 100 µM (inactive)	> 100 µM (inactive)	> 100 µM (inactive)	> 100 µM (inactive)	> 100 µM (inactive)	> 100 µM (inactive)	> 100 µM (inactive)	–
CC12OC1(C)C1C(=O)OCC1C2=O (stereo not given)	14.7 µM (inactive)	50.5 µM (inactive)	59.4 µM (inactive)	41 µM (inactive)	61.1 µM (inactive)	> 100 µM (inactive)	–	> 100 µM (inactive)	45.9 µM (inactive)	70 µM (inactive)	> 100 µM (inactive)	> 100 µM (inactive)	> 100 µM (inactive)	–	49.4 µM (inactive)	49.7 µM (inactive)	49.9 µM (inactive)	> 100 µM (inactive)	> 100 µM (inactive)
O=C(/C=C/c1cccc(Br)c1)c1cccs1	–	17.7 µM (inactive)	–	26 µM (inactive)	14.2 µM (inactive)	16.2 µM (inactive)	15.3 µM (inactive)	16.5 µM (inactive)	17.9 µM (inactive)	15.8 µM (inactive)	19.5 µM (inactive)	10.3 µM (inactive)	23 µM (inactive)	18.5 µM (inactive)	25.1 µM (inactive)	11.5 µM (inactive)	17.7 µM (inactive)	> 10 µM (inactive)	–
CC(C)(NC(=O)C(C)(C)NC(=O)OCc1ccccc1)C(=O)O (Cbz-[Aib]-[Aib]-OH)	> 100 µM (inactive)	> 100 µM (inactive)	> 100 µM (inactive)	> 100 µM (inactive)	> 100 µM (inactive)	> 100 µM (inactive)	> 100 µM (inactive)	> 100 µM (inactive)	> 100 µM (inactive)	> 100 µM (inactive)	> 100 µM (inactive)	> 100 µM (inactive)	> 100 µM (inactive)	> 100 µM (inactive)	> 100 µM (inactive)	> 100 µM (inactive)	> 100 µM (inactive)	> 100 µM (inactive)	–
